Assay results: patent publication US20220401429A1, “USE OF ANAMORELIN TO TREAT CANCER-RELATED FATIGUE” (Helsinn Healthcare SA, priority 2021, published 2022)

Experiments:
Format in all cases: in vivo, human
[1] = system: patients with advanced cancer; assay: FACIT-F fatigue subscale, single arm study of anamorelin (Example 1); settings: for FACIT-F Fatigue Subscale, change, Mean (±SD): change from baseline, 100 mg oral daily + physical activity + nutritional counseling
Source text: This study was undertaken to isolate and evaluate anamorelin's effect on fatigue, energy expenditure, and other side effects of cancer in a cancer-stricken population, by including in the study population only those patients suffering significant levels of fatigue and inflammatory activity, excluding from the study population confounding factors such as depression and anemia, and controlling for a consistent level of nutrition and physical exercise.
(§1) In this single arm study, 38 patients were intended for treatment with anamorelin for 6 weeks with an optional extension phase of 6 more weeks based on tolerability and safety and patient willingness. Patients received anamorelin 100 mg tablets and physical activity for 6 weeks for the intervention phase. Patients took 1 tablet orally while fasting (at least 1 hour before a meal).
• diagnosis of advanced cancer (metastatic or recurrent incurable solid tumors excluding prostate cancer) • fatigue on FACIT-F subscale of ≤34 on a 0 to 52 scale [in which 52=no fatigue and 0=worst possible fatigue] • CRP ≥3 mg/L* in the absence of any other more likely cause of increased CRP like an infection or an autoimmune disorder • unintentional weight loss of from 2% to 15% at any time within the previous 12 months • No evidence of moderate to severe depression as determined by a HADS depression score of ≤13 • Hemoglobin level ≥9 g/dL
A primary objective of the study was to examine the effects of anamorelin and standardized physical activity and nutritional counseling on changes in the Functional Assessment of […] (FACIT-F) subscale score at Day 43±3 days compared to baseline in patients with advanced cancer receiving oral anamorelin 100 mg daily and standardized physical activity and nutritional counseling.
FACIT-F is a well-validated QOL instrument in cancer patients (Cella, Tulsky et al. 1993). The 13-item fatigue subscale is a patient-rated assessment of intensity of fatigue and its related symptoms on a scale of 0 to 4.

[2] = system: patients with advanced cancer; assay: Edmonton Symptom Assessment Scale (ESAS), Example 1 study; settings: change from baseline, 100 mg oral daily + physical activity + nutritional counseling
Procedure: as §1
(§2) Secondary objectives of the study were to examine the effects of anamorelin and standardized physical activity and nutritional counseling on Health-related quality of life and patient reported outcomes as measured by The Multidimensional Fatigue Symptom Inventory-Short Form[MFSI-SF], PROMIS-Fatigue, Hospital Anxiety Depression Scale (HADS), Edmonton Symptom Assessment Scale (ESAS), Functional Assessment of Cancer Therapy (FACT-G), and its Functional Assessment of Anorexia/Cachexia Treatment (FAACT) subscale in these patients.
The ESAS measures 10 common symptoms in the past 24 hours (pain, fatigue, nausea, depression, anxiety, drowsiness, shortness of breath, appetite, sleep, and feeling of well-being); This questionnaire has been found valid and reliable in cancer populations (Bruera, Kuehn et al. 1991).

[3] = system: patients with advanced cancer; assay: Multidimensional Fatigue Symptom Inventory-Short Form (MFSI-SF), Example 1 study; settings: change from baseline, 100 mg oral daily + physical activity + nutritional counseling
Procedure: as §1, §2
MFSI-SF consists of 30 items designed to assess the multidimensional nature of fatigue(Stein, Jacobsen et al. 2004). Ratings are summed to obtain scores for 5 subscales (general fatigue, physical fatigue, emotional fatigue, mental fatigue, and vigor).

CN(C)N(C)C(=O)[C@@]1(Cc2ccccc2)CCCN(C(=O)[C@@H](Cc2c[nH]c3ccccc23)NC(=O)C(C)(C)N)C1 [anamorelin]
FACIT-F increase from baseline, linear mixed model with time as categorical variable ([1]; 43-day measure): 4.89
FACIT-F Fatigue Subscale, change, Mean (±SD) ([1]; Day 15 (N = 28)): 3.89 (±8.71),
FACIT-F Fatigue Subscale, change, Mean (±SD) ([1]; Day 29 (N = 28)): 6.32 (±9.53),
FACIT-F Fatigue Subscale, change, Mean (±SD) ([1]; Day 86 (N = 8)): 8.13 (±12.62),
Effect size for improvement in CRF ([1]; this study, FACIT-F Day 43 (Cohen's D)): 0.37
FACIT-F average increase over time, linear mixed model ([1]; time effect, FIG. 1): 0.11 units per day
ESAS Appetite, change, Mean (±SD) ([2]; Day 15 (N = 28)): −0.43 (±3.06),
ESAS-Fatigue, change, Mean (±SD) ([2]; Day 15 (N = 28)): −0.68 (±2.87),
ESAS Appetite, change, Mean (±SD) ([2]; Day 29 (N = 28)): −1.04 (±3.19),
ESAS-Fatigue, change, Mean (±SD) ([2]; Day 29 (N = 28)): −0.75 (±2.70),
ESAS Appetite, change, Mean (±SD) ([2]; Day 43 (N = 28)): −0.56 (±3.07),
ESAS-Fatigue, change, Mean (±SD) ([2]; Day 43 (N = 28)): −0.81 (±2.87),
ESAS Appetite, change, Mean (±SD) ([2]; Day 86 (N = 8)): −0.13 (±3.09),
ESAS-Fatigue, change, Mean (±SD) ([2]; Day 86 (N = 8)): −1.25 (±2.43),
MFSI-SF Emotional fatigue, change, Mean (±SD) ([3]; Day 15 (N = 28)): −0.43 (±2.20),
MFSI-SF General fatigue, change, Mean (±SD) ([3]; Day 15 (N = 28)): −2.25 (±4.53),
MFSI-SF Mental fatigue, change, Mean (±SD) ([3]; Day 15 (N = 28)): −0.93 (±2.57),
MFSI-SF Physical fatigue, change, Mean (±SD) ([3]; Day 15 (N = 28)): −0.71 (±3.69),
MFSI-SF Total, change, Mean (±SD) ([3]; Day 15 (N = 28)): −4.79 (±9.59),
MFSI-SF Vigor, change, Mean (±SD) ([3]; Day 15 (N = 28)): 0.46 (±2.89),
MFSI-SF Emotional fatigue, change, Mean (±SD) ([3]; Day 29 (N = 28)): 0.14 (±3.15),
MFSI-SF General fatigue, change, Mean (±SD) ([3]; Day 29 (N = 28)): −4.18 (±5.74),
MFSI-SF Mental fatigue, change, Mean (±SD) ([3]; Day 29 (N = 28)): −1.39 (±2.90),
MFSI-SF Physical fatigue, change, Mean (±SD) ([3]; Day 29 (N = 28)): −0.50 (±4.43),
MFSI-SF Total, change, Mean (±SD) ([3]; Day 29 (N = 28)): −6.32 (±12.41),
MFSI-SF Vigor, change, Mean (±SD) ([3]; Day 29 (N = 28)): 0.39 (±3.46),
MFSI-SF Emotional fatigue, change, Mean (±SD) ([3]; Day 43 (N = 28)): 1.04 (±4.36),
MFSI-SF Mental fatigue, change, Mean (±SD) ([3]; Day 43 (N = 28)): −0.36 (±4.12),
MFSI-SF Physical fatigue, change, Mean (±SD) ([3]; Day 43 (N = 28)): −0.39 (±5.03),
MFSI-SF Total, change, Mean (±SD) ([3]; Day 43 (N = 28)): −2.07 (±17.59),
MFSI-SF Vigor, change, Mean (±SD) ([3]; Day 43 (N = 28)): −1.11 (±5.28),
MFSI-SF Emotional fatigue, change, Mean (±SD) ([3]; Day 86 (N = 8)): −0.88 (±2.42),
MFSI-SF General fatigue, change, Mean (±SD) ([3]; Day 86 (N = 8)): −4.00 (±6.28),
